In test [1] the test system is voltage-gated K+ (Kv4.2) channel phosphorylation. As to the kind of experiment: Striatal phospho-Kv4.2 immunohistochemistry 1 h after single injection. As to conditions: single injection 20 mg/kg i.p., individual mice. Type of test: in vivo, mouse. Here is the method:
(§1) Immunohistochemistry was performed as described in Papale et al ([2016]). Briefly, 1 h after blocking in 5% normal goat serum and 0.1% Triton X‐100 solution, free‐floating sections were incubated overnight at 4°C with one of the following primary antibodies: anti‐phospho‐p44/42 MAP kinase (Thr202/Tyr204) (1:200, Cell Signaling Technology #9101), anti‐phospho–Elk‐1 (Ser383) (1:100, Cell Signaling #9181), anti‐phospho‐Kv4.2 (Thr607)‐R (1:100, Santa Cruz sc22254‐R), anti‐phospho‐MSK‐1 (1:100 Cell Signaling Technology #9595), anti‐phospho‐MEK1/2 (Ser218/222) (1:100, sc‐7995 Santa Cruz Biotechnology), c‐Fos (1:100, sc‐52 Santa Cruz Biotechnology), tyrosine Hydroxylase (monoclonal 1:1,000, Sigma Aldrich, Italy) and anti‐DARPP‐32 (H3) (1:100, Santa Cruz Biotechnology, #sc‐271111) overnight at 4°C. […]
(§2) For in vivo immunohistochemistry experiments, images were acquired from the dorsal striatum using a Leica DM IRB microscope under a 20× objective. The number of p‐ERK, p‐MSK‐1, p‐ELK, p‐MEK‐1, p‐VG K+, c‐Fos, and DARPP‐32 positive cells was counted in 2–3 consecutive sections per mouse, bilaterally and averaged across the sections using the ImageJ software by a blind investigator to the condition. Estimation of nigral cell loss was assessed by quantifying the number of TH‐immunopositive neurons of the SNc in 360 μm‐spaced sections for each animal.

For a further test, the system named is pMSK-1. As to the kind of experiment: Striatal pMSK-1 immunohistochemistry 1 h after single injection. Type of test: in vivo, mouse. The settings on record: single injection 20 mg/kg i.p., individual mice. Here is the method: as §1, §2
The test system of another test is c-Fos. Put plainly: Striatal c-Fos immunohistochemistry 1 h after single injection. Type of test: in vivo, mouse. The settings on record: single injection 20 mg/kg i.p., individual mice. Here is the method:
as §1, §2

A further test concerns pELK. As to the kind of experiment: Striatal pELK immunohistochemistry 1 h after single injection. In kind it is in vivo, mouse. The settings on record: single injection 20 mg/kg i.p., individual mice. As to the method: as §1, §2
For test [2], the target named is T1, ERK1/ERK2-KPNA5 interaction (Homo sapiens, UniProt O15131).
T1 construct: host or cells: HEK293
T1 sequence (O15131 whole entry): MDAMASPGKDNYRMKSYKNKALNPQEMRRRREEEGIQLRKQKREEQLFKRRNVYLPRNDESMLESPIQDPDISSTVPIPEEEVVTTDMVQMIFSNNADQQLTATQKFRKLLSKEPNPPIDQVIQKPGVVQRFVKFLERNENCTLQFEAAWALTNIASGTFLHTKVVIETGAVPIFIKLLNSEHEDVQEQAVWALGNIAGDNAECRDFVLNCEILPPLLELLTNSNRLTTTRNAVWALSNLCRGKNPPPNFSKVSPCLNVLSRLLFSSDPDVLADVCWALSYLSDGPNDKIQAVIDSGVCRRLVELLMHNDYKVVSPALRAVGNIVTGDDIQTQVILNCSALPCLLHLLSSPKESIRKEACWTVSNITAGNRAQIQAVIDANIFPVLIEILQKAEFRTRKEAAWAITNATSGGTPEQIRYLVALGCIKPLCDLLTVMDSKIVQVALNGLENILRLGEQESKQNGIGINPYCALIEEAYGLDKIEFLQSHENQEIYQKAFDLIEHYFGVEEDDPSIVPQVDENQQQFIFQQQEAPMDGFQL
Put plainly: Proximity ligation assay, ERK1 or ERK2 with KPNA5 in HEK293 cells. In kind it is binding. The settings on record: HEK293 cells pretreated with RB5 50 μM for 1 h. Here is the method:
1.5 × 10^6 HEK293 cells were seeded onto coverslips in 60 mm dishes. 24 h later, transfection was carried out using calcium phosphate method. 0.5 μg of pCMVTNT‐T7‐KPNA1 (Addgene, #26677), 0.5 μg of pCMVTNT‐T7‐KPNA2 (Addgene, #26678), 0.5 μg of pCMVTNT‐T7‐KPNA3 (Addgene, #26679), 0.5 μg of pCMVTNT‐T7‐KPNA4 (Addgene, #26680), 0.5 μg of pCMVTNT‐T7‐KPNA5 (Addgene, #26681), 1.5 μg of pcDNA3.1+/C‐(K)‐DYK‐KPNA6 (Genscript, #OHu29951D), 0.5 μg of pCMVTNT‐T7‐KPNA7 (Addgene, #26683), 5 μg of pcDNA3.1 +/C‐(K)‐DYK‐IPO7 (Genscript, #OHu11630), 0.5 μg pCMV5‐3HA‐RanBP5 (MRC PPU, University of Dundee, #DU7262), 0.5 μg pCMV5‐3HA‐ KPNB1 (MRC PPU, University of Dundee, #DU5332) were mixed with one of the following plasmids: 0.01 μg of 277.pCCLsin.PPT.hPGK.GFP.PRE, 0.25 μg of 277.pCCLsin.PPT.hPGK.ERK1‐GFP.PRE or 0.25 μg of 277.pCCLsin.PPT.hPGK.ERK2‐GFP.PRE. After approximately 16 h, cell culture medium was replaced with fresh medium. On the following day, cells were washed three times in PBS and fixed in 4% PFA for 15 min. […]
The proximity ligation assay was carried out following the manufacturer's instructions. […] The number of GFP‐positive cells, DAPI‐stained cells, and red dots was counted manually using Fiji‐ImageJ software.

For another test, the system named is pERK1/2. As to the kind of experiment: pERK1/2 in striatum of zQ175 females after RB5. Type of test: in vivo, mouse. As to conditions: zQ175 females and WT controls, RB5 for 9 days. Here is the method:
as §1
For in vivo immunohistochemistry experiments, images were acquired from the dorsal striatum using a Leica DM IRB microscope under a 20× objective. The number of p‐ERK, p‐MSK‐1, p‐ELK, p‐MEK‐1, p‐VG K+, c‐Fos, and DARPP‐32 positive cells was counted in 2–3 consecutive sections per mouse, bilaterally and averaged across the sections using the ImageJ software by a blind investigator to the condition. Estimation of nigral cell loss was assessed by quantifying the number of TH‐immunopositive neurons of the SNc in 360 μm‐spaced sections for each animal. […]

The subject of a further test is p-ERK. As to the kind of experiment: Striatal p-ERK immunohistochemistry 1 h after single injection. In kind it is in vivo, mouse. As to conditions: single injection 20 mg/kg i.p., individual mice. As to the method:
Immunohistochemistry was performed as described in Papale et al ([2016]). Briefly, 1 h after blocking in 5% normal goat serum and 0.1% Triton X‐100 solution, free‐floating sections were incubated overnight at 4°C with one of the following primary antibodies: anti‐phospho‐p44/42 MAP kinase (Thr202/Tyr204) (1:200, Cell Signaling Technology #9101), anti‐phospho–Elk‐1 (Ser383) (1:100, Cell Signaling #9181), anti‐phospho‐Kv4.2 (Thr607)‐R (1:100, Santa Cruz sc22254‐R), anti‐phospho‐MSK‐1 (1:100 Cell Signaling Technology #9595), anti‐phospho‐MEK1/2 (Ser218/222) (1:100, sc‐7995 Santa Cruz Biotechnology), c‐Fos (1:100, sc‐52 Santa Cruz Biotechnology), tyrosine Hydroxylase (monoclonal 1:1,000, Sigma Aldrich, Italy) and anti‐DARPP‐32 (H3) (1:100, Santa Cruz Biotechnology, #sc‐271111) overnight at 4°C. Sections were then incubated with biotinylated goat anti‐rabbit IgG (1:200, Vector Laboratories) or biotinylated goat anti‐mouse (1:200, Vector Laboratories) for 2 h. The classic avidin‐peroxidase complex (ABC, Vector, UK) protocol was applied, using 3,3′‐diaminobenzidine (DAB, Sigma) as a chromogen.
as §2

For another test, the system named is cleaved caspase-3. As to the kind of experiment: Cleaved caspase-3 in dentate gyrus of Tg2576 mice. As to conditions: for cleaved caspase-3 in dentate gyrus (Fig 5 panel l): individual animals. Type of test: in vivo, mouse.

This note sets out measurements from article PMC10630888, “Nuclear ERK1/2 signaling potentiation enhances neuroprotection and cognition via Importinα1/KPNA2” (EMBO Molecular Medicine, 2023).

Values joined by “and” are separate entries in the source; they are usually repeats but may differ in a detail not shown here. Equal values may be shown once.

Take “SCR: ineffective Scramble version of RB5 containing a TAT sequence (GRKKRRQRRRPPRVGPGVPEGVGVAVFGVKEPGQTGDVGPVGE) [reference compound]”: the “phospho-Kv4.2 positive cells in striatum” value in test [1] was 690.476 and 419.048 and 495.238 and 514.286 and 895.238 and 652.381 and 457.143 and 633.333 and 452.381 and 780.952 and 561.905 and 657.143 and 738.095 and 604.762. The “pMSK-1 positive cells in striatum” value in the test with pMSK-1 is 614.286 and 328.571 and 409.524 and 680.952 and 885.714 and 485.714 and 509.524 and 319.048 and 571.429 and 461.905 and 338.095 and 209.524 and 466.667 and 700 and 519.048. Moreover, the “c-Fos positive cells in striatum” value in the test on c-Fos was 461.905 and 395.238 and 423.81 and 380.952 and 419.048 and 352.381 and 438.095 and 376.19 and 604.762 and 404.762 and 590.476 and 552.381 and 490.476 and 290.476. Besides, the “pELK positive cells in striatum” value in the test on pELK is 323.81 and 423.81 and 452.381 and 228.571 and 433.333 and 633.333 and 371.429 and 404.762 and 166.667 and 219.048 and 309.524 and 280.952 and 295.238 and 195.238 and 133.333.
Consider “GRKKRRQRRRPPQGGGGGEPRRTEGVGPGVPGEVEMVKGQPFDV [RB5, six D-amino acids, acetylated N-terminus]”, for which the “phospho-Kv4.2 positive cells in striatum” value in test [1] is “did not influence the phosphorylation and 523.81 and 680.952 and 528.571 and 533.333 and 561.905 and 538.095 and 490.476 and 742.857 and 552.381 and 633.333 and 638.095 and 547.619”. Besides, in test [2], the “ERK1 or ERK2 binding to KPNA5 (PLA)” value is reported as “unaffected”. In the test on pERK1/2, the “pERK1/2 levels in striatum” value was “enhanced”. Also, the “pMSK-1 positive cells in striatum” value with pMSK-1 is “selectively activated and 947.619 and 433.333 and 542.857 and 395.238 and 690.476 and 838.095 and 642.857 and 1019.05 and 728.571 and 490.476 and 328.571 and 904.762 and 1233.33 and 671.429”. The “c-Fos positive cells in striatum” value with c-Fos was “selectively activated and 771.429 and 809.524 and 757.143 and 976.19 and 723.81 and 795.238 and 914.286 and 857.143 and 814.286 and 852.381 and 738.095 and 761.905 and 961.905 and 728.571”. Also, the “pELK positive cells in striatum” value in the test with pELK was “selectively activated and 980.952 and 828.571 and 933.333 and 1047.62 and 938.095 and 852.381 and 1080.95 and 1147.62 and 700 and 838.095 and 761.905 and 809.524 and 871.429 and 766.667”. Moreover, the “p-ERK positive cells in striatum” value was “enhanced pERK and pAcH3 in WT” with p-ERK (ERK1+/+ (WT) mice); “not in ERK1 KO mice” in the test with p-ERK (ERK1-/- mice); “greatly enhanced striatal ERK phosphorylation” in the test on p-ERK (1 h). Also, in the test on cleaved caspase-3 (Tg2576 mice, 7 months old, 20 mg/kg i.p. for 7 days), the “Preapoptotic phenotype measured by caspase-3” value is “significantly reduced the preapoptotic phenotype”. For the same substance, the “cleaved caspase-3 in dentate gyrus (Fig 5 panel l)” value in the test on cleaved caspase-3 (Tg2576 mice) was 0.77 and 0.91 and 0.62 and 1.34 and 0.79 and 1.19 and 1.3; with cleaved caspase-3 (WT mice) it was 0.76 and 0.9 and 0.39 and 0.92 and 0.68 and 0.62 and 0.56 and 0.58 and 0.59.
